Series [1] relates to MCF-7 cells. The class given is cell-based, human. The following applies: for inhibition rate on estrogen-dependent cell growth: 96 h.
Series [2] concerns the target T1, chymotrypsin (Bos taurus, UniProt P00766).
T1 construct: purchased Sigma C7761
Nature of the series: Chymotrypsin resistance (HPLC). The class given is in vitro ADME. The following applies: 1 μg chymotrypsin, 5 μg peptide, 37° C., 24 hours. Here is the method:
The chromatograms for double stapled ERAP No. 45 (A) and double stapled ERAP No. 46 (B), when a double stapled ERAP was reacted with chymotrypsin at 37° C. for 24 hours, are shown. In the experiment, the double stapled ERAP-chymotrypsin reaction solutions were subjected to high performance liquid chromatography (reverse-phase column, 0.3 mL/min flow rate, gradient elution (solution A: 0.1% trifluoroacetic acid; solution B: 0.1% trifluoroacetic acid/acetonitrile, A/B=90/10 (0-20 min) to 40/60 (20-80 min))), and detection was carried out by UV at 210 nm.
Chymotrypsin resistance was analyzed by adding 1 μg of chymotrypsin (#C7761, Sigma) and 5 μg of double stapled ERAP in a buffer (50 mM Tris-HCl; pH 8.0, 10 mM CaCl2), allowing this to react at 37° C. for 24 hours, and then subjecting the whole amount to high-performance liquid chromatography (HPLC). For the HPLC, a reverse-phase column (Inertsil Peptides C18 250×3.0 mm I.D.; GL Science, Tokyo, Japan) was used, gradient elution was performed using Solution A (0.1% trifluoroacetic acid) and Solution B (0.1% trifluoroacetic acid/acetonitrile) (A/B=90/10 (0-20 min), 90/10-40/60 (20-80 min)) at a flow rate of 0.3 mL/min, and a chromatogram for each double stapled ERAP was obtained by UV detection at 210 nm.

The target in series [3] is T2, BIG3-PHB2 interaction (Homo sapiens, UniProt Q99623).
T2 construct: endogenous in cells; host or cells: MCF-7
T2 sequence (Q99623 2-299 limits assumed): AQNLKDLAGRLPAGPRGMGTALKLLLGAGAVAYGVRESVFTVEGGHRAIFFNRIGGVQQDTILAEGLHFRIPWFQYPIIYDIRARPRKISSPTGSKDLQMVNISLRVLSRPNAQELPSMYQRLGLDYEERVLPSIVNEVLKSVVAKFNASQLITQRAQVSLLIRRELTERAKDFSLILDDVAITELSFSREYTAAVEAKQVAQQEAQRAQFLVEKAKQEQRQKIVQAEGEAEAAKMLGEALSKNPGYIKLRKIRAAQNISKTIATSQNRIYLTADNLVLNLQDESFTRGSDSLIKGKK
The series is described as follows: Inhibition of BIG3-PHB2 interaction in MCF-7 cells (immunoprecipitation, Western blotting). The format is cell-based. The following applies: MCF7, 96 hours, 10 nM estrogen, read-out: inhibition rate of BIG3-PHB2 binding. The method, then:
(A, B) Inhibitory effect of double stapled ERAP No. 46 on BIG3-PHB2 interaction in MCF-7 cells was evaluated by Western blotting. […] Then, the cells were lysed, immunoprecipitation was performed using an anti-BIG3 antibody, and immunoblot analyses were performed using the antibodies indicated in the drawing. The binding inhibition rates are expressed as proportions to the band area for PHB2 in untreated cells which is set as 100.
For immunoblot analyses, after performing SDS-PAGE, the membranes blotted with proteins were blocked with 4% BlockAce solution (Dainippon Pharmaceutical, Osaka, Japan) for 3 hours and then incubated to react for 12 hours with antibodies against BIG3 (1:1,000) and PHB2 (1:1,000) (Abcam, Cambridge, UK). After allowing interaction with HRP-labeled secondary antibodies (anti-rat IgG-HRP for BIG3, 1:5,000; and anti-rabbit IgG-HRP for PHB2, 1:1,000) (Santa Cruz Biotechnology, Dallas, Tex., USA) for 1 hour, the blots were developed with the Enhanced Chemiluminescence (ECL) system (GE Healthcare, Buckinghamshire, UK) and scanned using the Image Reader LAS-3000 mini (Fujifilm, Tokyo, Japan). […]

Series [4] deals with BT-20. The format is cell-based, human. As to conditions: 96 h. The method, then:
(§1) For the single stERAP and double stERAP #46, peptides were added at a total of eleven concentrations prepared by three-fold serial dilution starting from 20 μM. For the double stERAP #45, peptides were added at a total of eight concentrations prepared by two-fold serial dilation starting from 50 μM. The number of viable cells were measured 96 hours after the peptide addition, and relative values thereof were calculated based on the negative control cells without peptide addition and plotted. Experiments using double stERAP #45 on the SW982 cell line were not carried out.
(§2) MDA-MB-231 cells and SW982 cells were cultured using Leibovitz's L-15 medium (Thermo Fisher Scientific) at 37° C. without CO2 concentration control. All media were used by supplementing 10% FBS (Thermo Fisher Scientific) and a 1% antibiotic/antimycotic solution (Wako Pure Chemical, Osaka, Japan).
(§3) SK-BR-3 cells, BT-20 cells, and MDA-MB-231 cells were seeded into 48-well plates at 1×10^4 cells/200 μL in each well, and SW982 cells were seeded into 48-well plates at 0.5×10^4 cells/200 μL in each well. 48 hours later, the medium in each well was exchanged to a medium supplemented with a peptide (single stERAP and double stERAP #46: three-fold serial dilution from 20 μM, double stERAP #45: two-fold serial dilution starting from 50 μM), and after culturing for another 96 hours, the level of cell growth was measured using the Cell Counting Kit-8 (Dojindo, Kumamoto, Japan). Data were obtained from three independent experiments, a graph (mean±standard deviation) was produced using a graphing and data analyzing software SigmaPlot (Systat Software, San Jose, Calif., USA), and the 50% inhibition concentration (IC50) of the peptide against cell growth was calculated.

The test system of series [5] is MDA-MB-231. The class given is cell-based, human. The following applies: 96 h. The method, then: as §1, §2, §3
Series [6] deals with SK-BR-3. The class given is cell-based, human. The following applies: 96 h. Here is the method:
as §1, §2, §3

Series [7] deals with SW982. The format is cell-based, human. The following applies: 96 h. The method, then: as §1, §2, §3
Series [8] concerns the target T3, PKA (Homo sapiens, UniProt P17612).
T3 construct: endogenous in cells; host or cells: SK-BR-3
Nature of the series: PKA activity of BIG3 immunoprecipitates from SK-BR-3 cells. The class given is cell-based.

In series [9] the test system is PP1Cα. Nature of the series: PP1Cα activity of BIG3 immunoprecipitates from SK-BR-3 cells. The format is cell-based, human. The following applies: SK-BR-3, 24 hours; 10 μM H-89, 100 μg/mL trastuzumab, 10 nM lapatinib.
For series [10], the system named is BIG3 phosphorylation. Nature of the series: BIG3 phosphorylation (Ser305, Ser1208) in SK-BR-3 and KPL-4 cells, immunoblot. The following applies: SK-BR-3 and KPL-4, 30 minutes; 10 μM H-89, 100 μg/mL trastuzumab, 10 nM lapatinib. The format is cell-based, human. Background: A western blot detects proteins with antibodies after separation by electrophoresis.
The subject of series [11] is PHB2 (Ser39) phosphorylation. The series is described as follows: PHB2 (Ser39) phosphorylation in SK-BR-3 cells, immunoblot. The format is cell-based, human. As to conditions: SK-BR-3, presence of 1 μM stERAP; 100 μg/mL trastuzumab, 10 nM lapatinib.
In series [12] the test system is PKCα. Nature of the series: PKCα activity of PKCα immunoprecipitates from SK-BR-3 cells. The format is cell-based, human. As to conditions: SK-BR-3, 10 nM lapatinib in the presence of stERAP, 24 hours. Here is the method:
(A) Immunoblots are shown which indicate that PHB2 (Ser39) is phosphorylated in a PKCα-dependent manner in a HER2-positive breast cancer cell line. SK-BR-3 cells in which PKCα expression was suppressed by the siRNA method were treated for 24 hours with 1 μM stERAP, then cell lysate thereof was subjected to immunoprecipitation using an anti-PHB2 antibody, and immunoblot analyses were performed using the antibodies shown in the drawing. (B) PKCα activity by EGFR signaling in SK-BR-3 cells is shown. SK-BR-3 cells were treated for 24 hours with 1 μM stERAP, and with 10 nM lapatinib in the presence of stERAP, cell lysates thereof were subjected to immunoprecipitation using an anti-PKCα antibody, and PKCα activities were calculated using CREBtide as a substrate. Data represent the mean±standard error of three independent experiments.
The activities of protein kinase A (PKA) and protein kinase C alpha (PKCα) were measured by reacting the immunoprecipitates of BIG3 and PKCα with a synthetic substrate CREBtide ([…]) and 0.5 mM ATP in a kinase buffer (25 mM Hepes, pH 7.2, 25 mM MgCl2, 5 mM EDTA, 5 mM EGTA, 0.25 mM DTT) at 30° C. for 30 minutes, and by using an ADP-Glo kinase assay Kit (Promega, Fitchburg, Wis., USA).

The test system of series [13] is HER2-HER3 interaction. The series is described as follows: HER2-HER3 interaction, immunoprecipitation with anti-HER2 antibody. The format is cell-based, human. The following applies: SK-BR-3, 2 μM AZ3146 and 1 μM stERAP, 24 hours.
For series [14], the system named is HER2-Shc interaction. Nature of the series: HER2-Shc interaction, immunoprecipitation with anti-HER2 antibody. The class given is cell-based, human. As to conditions: SK-BR-3, 2 μM AZ3146 and 1 μM stERAP, 24 hours.

Like-named read-outs stand apart in the source and are kept apart here. *1 amine or outer side, *2 acyl side, *3 side chain or, on linkers, in order; H or OH if unused. Where a SMILES comes first, the peptide text is derived from it. Bridges are numbered along the chain shown (N, C = ends). NH(CH2)4NH = C(CCN[*:2])CN[*:1]

The IC50 is the concentration that gives 50% inhibition. As a reminder, the inhibition is the share of the control response that was lost under treatment. For `CSCC[C@H](NC(=O)[C@H](CCC(N)=O)NC(C)=O)C(=O)N[C@H]1CCC(=O)NCCCCNC(=O)CC[C@@H](C(=O)N[C@@H](CC(C)C)C(=O)N[C@@H](CCC(N)=O)C(=O)N[C@H]2CCC(=O)NCCCCNC(=O)CC[C@@H](C(N)=O)NC(=O)[C@H](CCCNC(=N)N)NC(=O)[C@H](CCC(N)=O)NC(=O)[C@H](CCCNC(=N)N)NC2=O)NC(=O)[C@H](CC(C)C)NC(=O)[C@H](CC(=O)O)NC(=O)[C@H](CO)NC1=O` [double stapled ERAP No. 46] (Ac-QMESDLELQERQRE-NH2; linker 3-7, 10-14 via NH(CH2)4NH), the IC50 was determined as 430 nM in [1]; 74 nM in series [4]; 143 nM in series [5]; 20 nM in series [6]; 26 nM in series [7]. Also, the “inhibition rate on estrogen-dependent cell growth” value in series [1] (10 μM) was determined as 91%. The “degradation by chymotrypsin treatment (chromatogram)” value in series [2] is listed as “hardly showed its degradation”. In addition, the inhibition at 1 µM in series [3] (1 μM) was 60%. Besides, the inhibition at 10 µM in series [3] (10 μM) came out at 95%.
In the case of `CS(=O)(=O)CCNCc1ccc(-c2ccc3ncnc(Nc4ccc(OCc5cccc(F)c5)c(Cl)c4)c3c2)o1` [lapatinib], the inhibition at 0.01 µM in series [8] (SK-BR-3, read-out: inhibition rate for PKA activity) is ~15%. Further, the “inhibition rate for PP1Cα activity” value in series [9] is listed as “about 15%”. Moreover, the “suppression of BIG3 phosphorylation (Ser305 and Ser1208)” value in series [10] is on record as “not so involved in the suppression of BIG3 phosphorylation”. In series [11], the “decrease of PHB2 (Ser39) phosphorylation” value is “nearly completely suppressed”. The PKCα activity inhibition result in series [12] is “approximately 80%”.
As to AZ3146, the “effect on stERAP inhibition of HER2-HER3 interaction” value in [13] is listed as “nearly completely canceled the inhibitory effects”. Further, in [14], the “effect on stERAP inhibition of HER2-Shc interaction” value is listed as “nearly completely canceled the inhibitory effects”.
As to `CSCC[C@H](NC(=O)[C@H](CCC(N)=O)NC(C)=O)C(=O)N[C@H]1CCC(=O)NCCCCNC(=O)CC[C@@H](C(=O)N[C@H]2CCC(=O)NCCCCNC(=O)CC[C@@H](C(=O)N[C@@H](CCCNC(=N)N)C(N)=O)NC(=O)[C@H](CCCNC(=N)N)NC(=O)[C@H](CC(C)C)NC(=O)[C@H](CCC(N)=O)NC2=O)NC(=O)[C@H](CC(C)C)NC(=O)[C@H](CC(=O)O)NC(=O)[C@H](CO)NC1=O` [double stapled ERAP No. 45] (Ac-QMESDLEEQLRER-NH2; linker 3-7, 8-12 via NH(CH2)4NH), the IC50 in series [1] amounted to 2320 nM; in series [4], 8600 nM; in series [5], 23700 nM; in [6], 2800 nM. Also, the “inhibition rate on estrogen-dependent cell growth” value in series [1] (1 μM) was determined as 21%. The “degradation by chymotrypsin treatment (chromatogram)” value in series [2] is listed as “several degradation products”.
As for `O=S(=O)(NCCNC/C=C/c1ccc(Br)cc1)c1cccc2cnccc12` [H-89], the “inhibition rate for PKA activity” value in series [8] (SK-BR-3, 24 hours, 10 μM H-89, 100 μg/mL trastuzumab, 10 nM lapatinib) is given as 100%. For the same molecule, the “inhibition rate for PP1Cα activity” value in series [9] is 96%. Moreover, the “suppression of BIG3 phosphorylation (Ser305 and Ser1208)” value in series [10] is on record as “nearly completely suppressed”.

The values above are taken from patent US11091517B2, “Peptide derivative and pharmaceutical composition containing same” (TOKUSHIMA UNIVERSITY, priority 2017, dated 2021).
